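Results reflect a 48-hour exposure of cells in 96-well plates to compound at five concentrations. TGI marks complete inhibition of growth.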
Key:
Assay in all cases: NCI tumour cell line growth inhibition, 48 h
SF-539 CNS = test system: SF-539 CNS
NCI-H23 lung = test system: NCI-H23 lung
HL-60(TB) leukemia = test system: HL-60(TB) leukemia
OVCAR-3 ovarian = test system: OVCAR-3 ovarian
SK-MEL-28 melanoma = test system: SK-MEL-28 melanoma
TK-10 renal = test system: TK-10 renal
MDA-N = test system: MDA-N
OVCAR-4 ovarian = test system: OVCAR-4 ovarian
K-562 leukemia = test system: K-562 leukemia
UACC-62 melanoma = test system: UACC-62 melanoma
SF-268 CNS = test system: SF-268 CNS
MDA-MB-231 breast = test system: MDA-MB-231 breast
OVCAR-5 ovarian = test system: OVCAR-5 ovarian
T-47D breast = test system: T-47D breast
M14 melanoma = test system: M14 melanoma
HOP-62 NSCLC = test system: HOP-62 NSCLC
MCF7 breast = test system: MCF7 breast
EKVX NSCLC = test system: EKVX NSCLC
HCT-15 colon = test system: HCT-15 colon
HCC-2998 colon = test system: HCC-2998 colon
UO-31 renal = test system: UO-31 renal
NCI/ADR-RES ovarian = test system: NCI/ADR-RES ovarian
NCI-H522 lung = test system: NCI-H522 lung
IGROV1 ovarian = test system: IGROV1 ovarian
ACHN renal = test system: ACHN renal
SR leukemia = test system: SR leukemia
MOLT-4 leukemia = test system: MOLT-4 leukemia
PC-3 prostate = test system: PC-3 prostate
HT29 colon = test system: HT29 colon
SF-295 CNS = test system: SF-295 CNS
SN12C renal = test system: SN12C renal
A549 NSCLC = test system: A549 NSCLC
SNB-19 CNS = test system: SNB-19 CNS
BT-549 breast = test system: BT-549 breast
LOX IMVI melanoma = test system: LOX IMVI melanoma
SK-MEL-5 melanoma = test system: SK-MEL-5 melanoma
CCRF-CEM leukemia = test system: CCRF-CEM leukemia
DU-145 prostate = test system: DU-145 prostate
786-0 renal = test system: 786-0 renal
COLO 205 colon = test system: COLO 205 colon
SK-OV-3 ovarian = test system: SK-OV-3 ovarian
UACC-257 melanoma = test system: UACC-257 melanoma
U251 CNS = test system: U251 CNS
SK-MEL-2 melanoma = test system: SK-MEL-2 melanoma
KM12 colon = test system: KM12 colon
HCT-116 colon = test system: HCT-116 colon
A498 renal = test system: A498 renal
HOP-92 NSCLC = test system: HOP-92 NSCLC
RPMI-8226 leukemia = test system: RPMI-8226 leukemia
OVCAR-8 ovarian = test system: OVCAR-8 ovarian
CAKI-1 renal = test system: CAKI-1 renal
SW-620 colon = test system: SW-620 colon
MDA-MB-435 = test system: MDA-MB-435
NCI-H460 lung = test system: NCI-H460 lung
SNB-75 CNS = test system: SNB-75 CNS
RXF 393 renal = test system: RXF 393 renal
HS 578T breast = test system: HS 578T breast
MALME-3M melanoma = test system: MALME-3M melanoma

SMILES: CC1(C(O)c2ccccc2)CN(C(C)(C)C)C(=O)/C1=C\Sc1ccccc1 (stereo not given)
- TGI (SF-539 CNS): > 100 µM
- TGI (NCI-H23 lung): > 100 µM
- TGI (HL-60(TB) leukemia): > 100 µM
- TGI (OVCAR-3 ovarian): > 100 µM
- TGI (SK-MEL-28 melanoma): > 100 µM
- TGI (TK-10 renal): > 100 µM
- TGI (MDA-N): > 100 µM
- TGI (OVCAR-4 ovarian): > 100 µM
- TGI (K-562 leukemia): > 100 µM
- TGI (UACC-62 melanoma): > 100 µM
- TGI (SF-268 CNS): 43.5 µM
- TGI (MDA-MB-231 breast): > 100 µM
- TGI (OVCAR-5 ovarian): > 100 µM
- TGI (T-47D breast): > 100 µM
- TGI (M14 melanoma): > 100 µM
- TGI (HOP-62 NSCLC): > 100 µM
- TGI (MCF7 breast): > 100 µM
- TGI (EKVX NSCLC): > 100 µM
- TGI (HCT-15 colon): > 100 µM
- TGI (HCC-2998 colon): > 100 µM
- TGI (UO-31 renal): > 100 µM
- TGI (NCI/ADR-RES ovarian): > 100 µM
- TGI (NCI-H522 lung): 22.9 µM
- TGI (IGROV1 ovarian): > 100 µM
- TGI (ACHN renal): > 100 µM
- TGI (SR leukemia): > 100 µM
- TGI (MOLT-4 leukemia): > 100 µM
- TGI (PC-3 prostate): > 100 µM
- TGI (HT29 colon): 79.8 µM
- TGI (SF-295 CNS): > 100 µM
- TGI (SN12C renal): > 100 µM
- TGI (A549 NSCLC): > 100 µM
- TGI (SNB-19 CNS): > 100 µM
- TGI (BT-549 breast): > 100 µM
- TGI (LOX IMVI melanoma): 32.1 µM
- TGI (SK-MEL-5 melanoma): > 100 µM
- TGI (CCRF-CEM leukemia): > 100 µM
- TGI (DU-145 prostate): > 100 µM
- TGI (786-0 renal): > 100 µM
- TGI (COLO 205 colon): 50.7 µM
- TGI (SK-OV-3 ovarian): > 100 µM
- TGI (UACC-257 melanoma): 95.2 µM
- TGI (U251 CNS): > 100 µM
- TGI (SK-MEL-2 melanoma): > 100 µM
- TGI (KM12 colon): > 100 µM
- TGI (HCT-116 colon): > 100 µM
- TGI (A498 renal): > 100 µM
- TGI (HOP-92 NSCLC): 21.7 µM
- TGI (RPMI-8226 leukemia): > 100 µM
- TGI (OVCAR-8 ovarian): > 100 µM
- TGI (CAKI-1 renal): > 100 µM
- TGI (SW-620 colon): > 100 µM
- TGI (MDA-MB-435): > 100 µM

SMILES: COc1cc(O)c(C(=O)/C=C/c2ccc(O)cc2)cc1Oc1ccc(C(=O)/C=C/c2ccc(O)cc2)c(O)c1
- TGI (SF-539 CNS): 5.51 µM
- TGI (NCI-H23 lung): 8.88 µM
- TGI (HL-60(TB) leukemia): > 100 µM
- TGI (OVCAR-3 ovarian): 8.14 µM
- TGI (SK-MEL-28 melanoma): 4.11 µM
- TGI (TK-10 renal): 11.3 µM
- TGI (MDA-N): 12.1 µM
- TGI (OVCAR-4 ovarian): 8.37 µM
- TGI (K-562 leukemia): 10.7 µM
- TGI (UACC-62 melanoma): 4.52 µM
- TGI (SF-268 CNS): 14.2 µM
- TGI (MDA-MB-231 breast): 9.75 µM
- TGI (OVCAR-5 ovarian): 5.6 µM
- TGI (T-47D breast): 8.86 µM
- TGI (M14 melanoma): 12.7 µM
- TGI (HOP-62 NSCLC): 9.17 µM
- TGI (MCF7 breast): 13.5 µM
- TGI (EKVX NSCLC): 5.68 µM
- TGI (HCT-15 colon): 3.68 µM
- TGI (UO-31 renal): 7.06 µM
- TGI (NCI/ADR-RES ovarian): 9.55 µM
- TGI (NCI-H460 lung): 12.1 µM
- TGI (NCI-H522 lung): 6.22 µM
- TGI (IGROV1 ovarian): 3.9 µM
- TGI (ACHN renal): 5.02 µM
- TGI (SR leukemia): > 100 µM
- TGI (MOLT-4 leukemia): > 100 µM
- TGI (PC-3 prostate): 19.8 µM
- TGI (HT29 colon): 2.66 µM
- TGI (SNB-75 CNS): 7.5 µM
- TGI (SF-295 CNS): 10.4 µM
- TGI (SN12C renal): 5.99 µM
- TGI (A549 NSCLC): 15.3 µM
- TGI (SNB-19 CNS): 25.1 µM
- TGI (BT-549 breast): 9.19 µM
- TGI (LOX IMVI melanoma): 10.7 µM
- TGI (SK-MEL-5 melanoma): 4.19 µM
- TGI (CCRF-CEM leukemia): 33.8 µM
- TGI (DU-145 prostate): 5.78 µM
- TGI (786-0 renal): 5.73 µM
- TGI (RXF 393 renal): 6.1 µM
- TGI (COLO 205 colon): 3.58 µM
- TGI (HS 578T breast): 82.8 µM
- TGI (SK-OV-3 ovarian): 9.15 µM
- TGI (UACC-257 melanoma): 21.7 µM
- TGI (U251 CNS): 4.97 µM
- TGI (SK-MEL-2 melanoma): 14.7 µM
- TGI (KM12 colon): 3.18 µM
- TGI (HCT-116 colon): 4 µM
- TGI (A498 renal): 5.68 µM
- TGI (HOP-92 NSCLC): 24.9 µM
- TGI (RPMI-8226 leukemia): 6.49 µM
- TGI (OVCAR-8 ovarian): 7.97 µM
- TGI (CAKI-1 renal): 9.69 µM
- TGI (MALME-3M melanoma): 6.37 µM
- TGI (SW-620 colon): 11 µM
- TGI (MDA-MB-435): 11.8 µM
